In article PMC9900903 (bioRxiv, 2023):
Where two headings read alike, the source gives them in different places.

Tests used:
Aap lectin domain = target: T1, Aap lectin domain (Staphylococcus epidermidis, UniProt Q5HKE8); assay: ITC; format: binding; conditions: pH 7.2, 50 mM phosphate, 150 mM NaCl, 25 °C
T1 sequence (Q5HKE8 351-605): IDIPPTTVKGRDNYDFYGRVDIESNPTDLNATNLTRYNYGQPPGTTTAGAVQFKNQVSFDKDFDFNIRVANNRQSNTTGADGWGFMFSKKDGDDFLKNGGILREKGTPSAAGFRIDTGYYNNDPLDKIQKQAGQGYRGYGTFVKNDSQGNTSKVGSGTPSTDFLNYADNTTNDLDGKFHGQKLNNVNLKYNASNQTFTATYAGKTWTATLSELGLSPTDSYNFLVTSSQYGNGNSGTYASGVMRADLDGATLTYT

SasG lectin domain = target: T2, SasG lectin domain (Staphylococcus aureus, UniProt Q2G2B2); assay: ITC; format: binding; conditions: pH 7.2, 50 mM phosphate, 150 mM NaCl, 25 °C
T2 sequence (Q2G2B2 163-419): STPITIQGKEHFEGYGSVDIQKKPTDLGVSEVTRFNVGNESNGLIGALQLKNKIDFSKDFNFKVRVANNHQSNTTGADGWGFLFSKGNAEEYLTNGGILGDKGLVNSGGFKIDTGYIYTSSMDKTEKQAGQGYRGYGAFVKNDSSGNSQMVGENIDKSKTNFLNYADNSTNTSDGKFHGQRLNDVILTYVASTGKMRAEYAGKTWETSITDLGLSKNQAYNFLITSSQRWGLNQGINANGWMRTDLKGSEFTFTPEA

Row | Kd (Aap lectin domain) [µM] | Kd (Aap lectin domain; read-out: affinity) [µM] | SMILES | ITC (SasG lectin domain)
1 | 13 |  | CC(=O)N[C@H]1[C@H]([C@H](O)[C@H](O)CO)O[C@@](O[C@H]2[C@@H](O)[C@@H](CO)O[C@@H](O[C@H]3[C@H](O)[C@@H](NC(C)=O)C(O)O[C@@H]3CO)[C@@H]2O)(C(=O)O)C[C@@H]1O (stereo partly drawn) [3'-sialyl-N-acetyllactosamine] | 
2 |  | ~130 | CC(=O)N[C@H]1C(O)O[C@H](CO)[C@@H](O[C@@H]2O[C@H](CO)[C@H](O)[C@H](O)[C@H]2O)[C@@H]1O (stereo partly drawn) [N-acetyllactosamine] | We confirmed that SasG lectin is able to bind N-acetyllactosamine by ITC
